# PubChem BioAssay AID2060907 (Molecular Pharmacology Branch, DTP, NCI, 2025)
# Values joined by “and” are separate entries in the source; they are usually repeats but may differ in a detail not shown here. Equal values may be shown once.
# System: 388556-164-R-J1-PDC complex spheroid viability
# Test: Anticancer human tumor 388556-164-R-J1-PDC patient-derived colon adenocarcinoma cell line growth inhibition [RAS]
# Conditions: for viability, T/C: stronger effect = lower value
# Outline: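 Multi-cell-type spheroids: tumor cells plus HUVEC endothelial cells and mesenchymal stem cells. RAS-pathway inhibitors were combined with targeted agents, each dosed in half-log steps down from clinical Cmax, or from 10 microM when Cmax was unknown.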
# [1] = curve of first compound, second compound 0.0316 µM
# [2] = curve of first compound, second compound 0.1 µM
# [3] = curve of first compound, second compound 0.316 µM
# [4] = curve of first compound, second compound 1 µM
# [5] = curve of first compound, second compound 3.16 µM
# [6] = curve of first compound, second compound 10 µM
# [7] = second compound 0.0316 µM, first compound 0.0316 µM
# [8] = second compound 0.0316 µM, first compound 0.1 µM
# [9] = second compound 0.0316 µM, first compound 0.316 µM
# [10] = second compound 0.0316 µM, first compound 1 µM
# [11] = second compound 0.0316 µM, first compound 3.16 µM
# [12] = second compound 0.0316 µM, first compound 10 µM
# [13] = second compound 0.1 µM, first compound 0.0316 µM
# [14] = second compound 0.1 µM, first compound 0.1 µM
# [15] = second compound 0.1 µM, first compound 0.316 µM
# [16] = second compound 0.1 µM, first compound 1 µM
# [17] = second compound 0.1 µM, first compound 3.16 µM
# [18] = second compound 0.1 µM, first compound 10 µM
# [19] = second compound 0.316 µM, first compound 0.0316 µM
# [20] = second compound 0.316 µM, first compound 0.1 µM
# [21] = second compound 0.316 µM, first compound 0.316 µM
# [22] = second compound 0.316 µM, first compound 1 µM
# [23] = second compound 0.316 µM, first compound 3.16 µM
# [24] = second compound 0.316 µM, first compound 10 µM
# [25] = second compound 1 µM, first compound 0.0316 µM
# [26] = second compound 1 µM, first compound 0.1 µM
# [27] = second compound 1 µM, first compound 0.316 µM
# [28] = second compound 1 µM, first compound 1 µM
# [29] = second compound 1 µM, first compound 3.16 µM
# [30] = second compound 1 µM, first compound 10 µM
# [31] = second compound 3.16 µM, first compound 0.0316 µM
# [32] = second compound 3.16 µM, first compound 0.1 µM
# [33] = second compound 3.16 µM, first compound 0.316 µM
# [34] = second compound 3.16 µM, first compound 1 µM
# [35] = second compound 3.16 µM, first compound 3.16 µM
# [36] = second compound 3.16 µM, first compound 10 µM
# [37] = second compound 10 µM, first compound 0.0316 µM
# [38] = second compound 10 µM, first compound 0.1 µM
# [39] = second compound 10 µM, first compound 0.316 µM
# [40] = second compound 10 µM, first compound 1 µM
# [41] = second compound 10 µM, first compound 3.16 µM
# [42] = second compound 10 µM, first compound 10 µM
# 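Further: spheroids exposed to compound for 7 days before readout.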
# 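Wherever viability, T/C is given: 100% = DMSO vehicle control luminescence.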
compound,measurement,setting,value
CCc1c2c(nc3ccc(O)cc13)-c1cc3c(c(=O)n1C2)COC(=O)[C@]3(O)CC + C=CC(=O)N1CCN(c2nc(OCC3CCCN3C)nc3c(F)c(-c4nc(N)cc(C)c4C(F)(F)F)c(Cl)cc23)C(C)C1,IC50,"curve of first compound, second compound 0.00316 µM",98.4 nM
same,IC50,"curve of first compound, second compound 0.01 µM",119 nM
same,IC50,[1],86.1 nM
same,IC50,[2],74.8 nM
same,IC50,[3],97.2 nM
same,IC50,[4],96.3 nM
same,"viability, T/C","second compound 0.00316 µM, first compound 0.000949 µM",103%
same,"viability, T/C","second compound 0.00316 µM, first compound 0.003 µM",97.2%
same,"viability, T/C","second compound 0.00316 µM, first compound 0.00949 µM",78%
same,"viability, T/C","second compound 0.00316 µM, first compound 0.03 µM",67.3%
same,"viability, T/C","second compound 0.00316 µM, first compound 0.0949 µM",53.7%
same,"viability, T/C","second compound 0.00316 µM, first compound 0.3 µM",29.9%
same,"viability, T/C","second compound 0.01 µM, first compound 0.000949 µM",110%
same,"viability, T/C","second compound 0.01 µM, first compound 0.003 µM",95.5%
same,"viability, T/C","second compound 0.01 µM, first compound 0.00949 µM",81.4%
same,"viability, T/C","second compound 0.01 µM, first compound 0.03 µM",72%
same,"viability, T/C","second compound 0.01 µM, first compound 0.0949 µM",58.3%
same,"viability, T/C","second compound 0.01 µM, first compound 0.3 µM",31.9%
same,"viability, T/C","second compound 0.0316 µM, first compound 0.000949 µM",99.9%
same,"viability, T/C","second compound 0.0316 µM, first compound 0.003 µM",98.8%
same,"viability, T/C","second compound 0.0316 µM, first compound 0.00949 µM",80.2%
same,"viability, T/C","second compound 0.0316 µM, first compound 0.03 µM",65.2%
same,"viability, T/C","second compound 0.0316 µM, first compound 0.0949 µM",51.4%
same,"viability, T/C","second compound 0.0316 µM, first compound 0.3 µM",23.3%
same,"viability, T/C","second compound 0.1 µM, first compound 0.000949 µM",102%
same,"viability, T/C","second compound 0.1 µM, first compound 0.003 µM",93.3%
same,"viability, T/C","second compound 0.1 µM, first compound 0.00949 µM",74.4%
same,"viability, T/C","second compound 0.1 µM, first compound 0.03 µM",61.3%
same,"viability, T/C","second compound 0.1 µM, first compound 0.0949 µM",51%
same,"viability, T/C","second compound 0.1 µM, first compound 0.3 µM",27.2%
same,"viability, T/C","second compound 0.316 µM, first compound 0.000949 µM",106%
same,"viability, T/C","second compound 0.316 µM, first compound 0.003 µM",92.7%
same,"viability, T/C","second compound 0.316 µM, first compound 0.00949 µM",82.4%
same,"viability, T/C","second compound 0.316 µM, first compound 0.03 µM",67%
same,"viability, T/C","second compound 0.316 µM, first compound 0.0949 µM",50.5%
same,"viability, T/C","second compound 0.316 µM, first compound 0.3 µM",32.7%
same,"viability, T/C","second compound 1 µM, first compound 0.000949 µM",107%
same,"viability, T/C","second compound 1 µM, first compound 0.003 µM",103%
same,"viability, T/C","second compound 1 µM, first compound 0.00949 µM",75.8%
same,"viability, T/C","second compound 1 µM, first compound 0.03 µM",68.1%
same,"viability, T/C","second compound 1 µM, first compound 0.0949 µM",55.2%
same,"viability, T/C","second compound 1 µM, first compound 0.3 µM",28.8%
CC1(C)CCC(Nc2ncc(C(F)(F)F)c(-c3c[nH]c4c(P(C)(C)=O)c(C#N)ccc34)n2)CN1 (stereo not drawn),"viability, T/C",compound 0.000949 µM,89.6% and 97.1% and 84.3%
same,"viability, T/C",compound 0.003 µM,93.9% and 97.5% and 113%
same,"viability, T/C",compound 0.00949 µM,95.5% and 100% and 114%
same,"viability, T/C",compound 0.03 µM,94.3% and 100% (2×)
same,"viability, T/C",compound 0.0949 µM,88.2% and 94.4% and 107%
same,"viability, T/C",compound 0.3 µM,87% and 84.8% and 87.1%
same,IC50,curve of compound,> 300 nM
CC(Nc1ccc2c(c1)OCCn1cc(N3C(=O)OCC3C(F)F)nc1-2)C(N)=O (stereo not drawn) + C#Cc1c(F)ccc2cc(O)cc(-c3ncc4c(N5CC6CCC(C5)N6)nc(OCC56CCCN5CC(F)C6)nc4c3F)c12,IC50,[1],> 10000 nM
same,IC50,[2],> 10000 nM
same,IC50,[3],> 10000 nM
same,IC50,[4],8110 nM
same,IC50,[5],2960 nM
same,IC50,[6],1040 nM
same,"viability, T/C",[7],94.9%
same,"viability, T/C",[8],95.5%
same,"viability, T/C",[9],94%
same,"viability, T/C",[10],78.8%
same,"viability, T/C",[11],76.6%
same,"viability, T/C",[12],66.6%
same,"viability, T/C",[13],93.6%
same,"viability, T/C",[14],90.7%
same,"viability, T/C",[15],83.3%
same,"viability, T/C",[16],81%
same,"viability, T/C",[17],77%
same,"viability, T/C",[18],62.3%
same,"viability, T/C",[19],94.8%
same,"viability, T/C",[20],84.3%
same,"viability, T/C",[21],74.2%
same,"viability, T/C",[22],69.9%
same,"viability, T/C",[23],72%
same,"viability, T/C",[24],51.9%
same,"viability, T/C",[25],82.1%
same,"viability, T/C",[26],89.9%
same,"viability, T/C",[27],58.1%
same,"viability, T/C",[28],69.4%
same,"viability, T/C",[29],69.2%
same,"viability, T/C",[30],43.6%
same,"viability, T/C",[31],82.4%
same,"viability, T/C",[32],63.2%
same,"viability, T/C",[33],64.2%
same,"viability, T/C",[34],59.5%
same,"viability, T/C",[35],53.3%
same,"viability, T/C",[36],38.4%
same,"viability, T/C",[37],59.4%
same,"viability, T/C",[38],57.2%
same,"viability, T/C",[39],55.1%
same,"viability, T/C",[40],50.8%
same,"viability, T/C",[41],29.5%
same,"viability, T/C",[42],31.1%
Cc1nc(N2CCC3(CC2)COC(C)C3N)c(CO)nc1Sc1ccnc(N)c1Cl (stereo not drawn) + C#Cc1c(F)ccc2cc(O)cc(-c3ncc4c(N5CC6CCC(C5)N6)nc(OCC56CCCN5CC(F)C6)nc4c3F)c12,IC50,[1],2290 nM
same,IC50,[2],2350 nM
same,IC50,[3],827 nM
same,IC50,[4],921 nM
same,IC50,[5],400 nM
same,IC50,[6],95.9 nM
same,"viability, T/C",[7],92%
same,"viability, T/C",[8],85.2%
same,"viability, T/C",[9],79.8%
same,"viability, T/C",[10],55.2%
same,"viability, T/C",[11],51%
same,"viability, T/C",[12],42.3%
same,"viability, T/C",[13],98.4%
same,"viability, T/C",[14],89.7%
same,"viability, T/C",[15],71.8%
same,"viability, T/C",[16],62.5%
same,"viability, T/C",[17],45%
same,"viability, T/C",[18],36.9%
same,"viability, T/C",[19],89.2%
same,"viability, T/C",[20],81.4%
same,"viability, T/C",[21],47.3%
same,"viability, T/C",[22],51.8%
same,"viability, T/C",[23],45.2%
same,"viability, T/C",[24],28.8%
same,"viability, T/C",[25],80%
same,"viability, T/C",[26],70.5%
same,"viability, T/C",[27],58.9%
same,"viability, T/C",[28],49.1%
same,"viability, T/C",[29],39.4%
same,"viability, T/C",[30],26.2%
same,"viability, T/C",[31],66.1%
same,"viability, T/C",[32],50.8%
same,"viability, T/C",[33],54.3%
same,"viability, T/C",[34],46.6%
same,"viability, T/C",[35],33.6%
same,"viability, T/C",[36],24%
same,"viability, T/C",[37],61.1%
same,"viability, T/C",[38],45.5%
same,"viability, T/C",[39],44%
same,"viability, T/C",[40],32.1%
same,"viability, T/C",[41],22%
same,"viability, T/C",[42],21.3%
